Measurements published in patent US6916432B2, “Hair bleach composition and hair dye composition” (Kao Corporation, priority 2000, dated 2005).

Key:
[1] = partition coefficient (octanol-water) (log P) at 25° C.; settings: for logP: octanol/water

| Structure (SMILES) | logP [1] | logP (physchem) | also measured |
| --- | --- | --- | --- |
| CCCCOCCOCCO [diethylene glycol mono-n-butyl ether] | 0.9 | – | – |
| OCCOc1ccccc1 [2-phenoxyethanol] | – | 1.2 | – |
| CCN1CCCC1=O [N-ethylpyrrolidone] | -0.2 | – | – |
| CC(O)CO (centres unmarked) [propylene glycol] | -1.1 | – | – |
| CCCCOCCO [ethylene glycol mono-n-butyl ether] | – | 0.8 | – |
| CCOCCO [2-ethoxyethanol] | -0.2 | – | – |
| CC(O)COc1ccccc1 (centres unmarked) [1-phenoxy-2-propanol] | 1.1 | – | – |
| OCCOCCO [diethylene glycol] | – | -1.3 | – |
| COCCOCCO [methoxydiglycol] | – | – | log P (at 25° C.) ([1]; octanol-water, 25° C.): −0.7 |
| OC1CCCCC1 [cyclohexanol] | – | 1.2 | – |
| CC(O)CCO (centres unmarked) [1,3-butanediol] | – | -1.4 | – |
| OCC(O)CO [glycerin] | -2.2 | – | – |
| CN1CCCC1=O [N-methylpyrrolidone] | -0.5 | – | – |
| OCCOCc1ccccc1 [2-benzyloxyethanol] | 1.2 | – | – |
